Residues, ends and D or L forms follow the SMILES beside them.
Key:
S. aureus = assay: Mouse model of aggressive bacterial infection (intraperitoneal); type: in vivo; settings: 1.6×10^10 CFU S. aureus IP; 8 mg/kg peptide IP four hours post infection
Experimental: FIG. 10. Ability of new antimicrobial peptides HHC-10 and HHC-36 to protect mice against Staph aureus infections. Bacterial loads in the peritoneal lavage from individual mice after 24 hours of infection are shown (solid circles). Dead animals were assigned the highest colony forming unit (CFU) count obtained in the experiment. The solid line represents the arithmetic mean for each group.
(§1) FIG. 18. […] Mice were treated with 1.6×10^10 CFU of S. aureus intraperitoneally. Four hours post infection they received a dose of 8 mg/kg peptide IP. The infection was allowed to progress for 4 or 24 hours after which mice were euthanaised and plate counts of staphylococci surviving in the peritoneum were determined. Bacterial loads in the peritoneal lavage from individual mice after 24 hours of infection are shown (solid circles). The solid line represents the arithmetic mean for each group.
as §1, with “19.” for “18.”
To further confirm this, a mouse model of aggressive bacterial infection, widely used to assess antibiotic efficacy, was utilized. Mice were treated with 1.6×10^10 CFU IP. Four hours post infection they received a dose of 4 mg/kg peptide IP. The infection was allowed to progress for 20 more hours, for a total infection time of 24 hours.
These immunomodulatory activities led to protection against infections by S. aureus. Briefly a mouse model of aggressive bacterial infection, widely used to assess antibiotic efficacy, was utilized. […] The infection was allowed to progress for 4 or 24 hours after which mice were euthanaised and plate counts of staphylococci surviving in the peritoneum were determined.

[1] = test system: MCP-1 release by human PBMC; assay: Chemokine induction in PBMC (capture ELISA); type: cell-based; settings: for Chemokine induction MCP-1: background (204) subtracted
In short: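 Heparinized blood from healthy volunteers; Ficoll-isolated human PBMC (7.5×10^5) treated with peptides at 20 or 100 μg/ml for 24 hours at 37° C, 5% CO2. Cell-free supernatants assayed for MCP-1 by capture ELISA.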

[2] = test system: MCP-3 release by human PBMC; assay: Chemokine induction in PBMC (capture ELISA); type: cell-based; settings: background (6) subtracted
In short: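 Human PBMC from healthy donors (Ficoll-isolated), 7.5×10^5 cells at 0.75–1×10^6 cells/ml, treated with peptides at 20 or 100 μg/ml for 24 h at 37° C, 5% CO2. MCP-3 in cell-free supernatants measured by capture ELISA.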

[3] = test system: cord blood mononuclear cells (CBMC); assay: Adjuvant properties: cytokine/chemokine induction by peptides alone and with CpG oligonucleotides and polyphosphazene P6; type: cell-based, human; settings: peptide alone 20 ug/mL, background subtracted
Source text: It is well accepted that vaccine immunization is best achieved by co-administration of an adjuvant. The precise mechanism by which these adjuvants work has eluded immunologists but appears to work in part by upregulating elements of innate immunity that smooth the transition to adaptive (antigen-specific) immunity (Bendelac A and R. Medzhitov. 2002. Adjuvants of immunity: Harnessing innate immunity to promote adaptive immunity J. Exp. Med. 195:F19-F23). Within this concept there are several possible avenues by which adjuvants might work including the attraction of immune cells into the site at which a particular antigen is injected, through e.g., upregulation of chemokines, the appropriate activation of cells when they reach that site, which can be caused by local cell or tissue damage releasing endogenous adjuvants or through specific cell activation by the adjuvants, and the compartmentalization of immune responses to the site of immunization (the so-called “depot” effect). […] Therefore we studies the ability of our small host defence peptides to upregulate adjuvant responses in both human PBMC and cord blood mononuclear cells (CBMC) (representing the responses of blood cells from neonates), both alone (Table 10 and 11) and in combination with other proposed adjuvant agents that might work through other mechanisms such as CpG oligodeoxy ribonucleotides (TLR9 agionists that activate cells through interaction with TLR9 and fit into 3 different classes A=molecule 2336, B=10103 and C=2395), and polyphosphazene P6 (which induces a depot effect).

SMILES: CC[C@H](C)[C@H](N)C(=O)N[C@@H](Cc1c[nH]c2ccccc12)C(=O)N[C@H](C(=O)N[C@H](C(=O)N[C@@H](Cc1c[nH]c2ccccc12)C(=O)N[C@@H](CCCNC(=N)N)C(=O)N[C@@H](CCCNC(=N)N)C(N)=O)[C@@H](C)CC)C(C)C [HH18, IWVIWRR-NH2] (H-IWVIWRR-NH2; N-terminus assumed)
- protection of mice from S. aureus infections (bacterial loads in peritoneal lavage) (S. aureus): Protection of mice from S. aureus infections
- Chemokine induction MCP-1 ([1]; 20 μg/ml peptide): 1111 pg/mL
- Chemokine induction MCP-1 ([1]; 100 μg/ml peptide): 9608 pg/mL
- induction of MCP1 ([1]; 20 or 100 μg/ml peptide, 24 hours (FIG. 15)): induced
- Chemokine induction MCP-3 ([2]; 20 μg/ml peptide): 32 pg/mL
- Chemokine induction MCP-3 ([2]; 100 μg/ml peptide): 431 pg/mL
- Cytokines induced: Gro-α [3]: 55 pg/mL
- Cytokines induced: IL-6 [3]: 7 pg/mL
- Cytokines induced: IL-8 [3]: 372 pg/mL
- Cytokines induced: MCP-1 [3]: 54 pg/mL
- Cytokines induced: MCP-3 [3]: -24 pg/mL
- Cytokines induced: TNF-α [3]: -4 pg/mL

From US8343475B2, “Small cationic antimicrobial peptides” (priority 2006, dated 2013)
